This note sets out measurements from patent US12350265B2, “Pharmaceutical composition for treating acute myeloid leukemia, containing FLT3 inhibitor and chemotherapeutic agents” (Hanmi Pharm. Co., Ltd., priority 2019, dated 2025).

The test relates to MV-4-11 cell line. Kind of test: MV-4-11 cell line xenografted mouse model, tumor volume / tumor growth inhibition. To be noted: nude mice xenografted with MV-4-11; Compound A 3 mg/kg/day orally once a day, days 1 to 21. In kind it is in vivo. The method, then: In a mouse model xenografted with the MV-4-11 cell line, comparison or combination efficacy tests were conducted of the FLT3 inhibitor 5-Chloro-N-(3-cyclopropyl-5-(((3R,5S)-3,5-dimethylpiperazine-1-yl)methyl)phenyl)-4-(6-methyl-1H-indole-3-yl)pyrimidin-2-amine (hereinafter compound A); 4-amino-1-[(2R,3S,4S,5R)-3,4-dihydroxy-5-(hydroxymethyl)oxolane-2-yl]pyrimidin-2-one (hereafter cytarabine); and ((8S,10S)-8-acetyl-10-[(2S,4S,5S,6S)-4-amino-5-hydroxy-6-methyl-oxane-2-yl]oxy-6,8,11-trihydroxy-1-methoxy-9,10-dihydro-7H-tetracene-5,12-dione (hereafter daunorubicin).
The MV-4-11 cell line was purchased from the American Type Culture Collection (ATCC). To construct a xenografted mouse model using this MV-4-11 cell line, 5-week-old female CAnN·Cg-Foxn1nu/Crljbgi mice (hereinafter, Nude mice) were purchased from Charles River Laboratories Japan, Inc.
The MV-4-11 cell line was inoculated subcutaneously in the flank with 5×10^6 cells/[…]/mouse and allowed to grow. Mice having a tumor volume of 100 to 300 mm^3 (length×width^2×0.5) were selected 1 day before administration, the average tumor volume in each group was divided into 4 groups (5 animals/group) so that the average tumor volume was almost the same, and each dose was administered for a total period of 21 days. […]

`Cc1ccc2c(-c3nc(Nc4cc(CN5C[C@@H](C)N[C@@H](C)C5)cc(C5CC5)c4)ncc3Cl)c[nH]c2c1` [compound A, 5-Chloro-N-(3-cyclopropyl-5-(((3R,5S)-3,5-dimethylpiperazine-1-yl)methyl)phenyl)-4-(6-methyl-1H-indole-3-yl)pyrimidin-2-amine]: the “Tumor growth inhibition (TGI)” value is on record as 34.7%.
